How the values were obtained:
Assay in all cases: relative viability (nuclei count vs DMSO), 5 days (fraction); higher = more cells survive
CUDC-101 + Pictilisib = compound: C#Cc1cccc(Nc2ncnc3cc(OC)c(OCCCCCCC(=O)NO)cc23)c1 [CUDC-101] + CS(=O)(=O)N1CCN(Cc2cc3nc(-c4cccc5[nH]ncc45)nc(N4CCOCC4)c3s2)CC1 [Pictilisib] (partner 1 µM)
In short: (§1)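 For relative viability, nuclei counts in treated wells were divided by those in vehicle wells. Lung cancer cell lines had been pin-tool dosed in 1536-well plates the day after seeding and cultured for 5 days, then fixed and stained in one step (final 0.05% Triton X-100, 1% formaldehyde, 1 ug/ml Hoechst) and imaged at 4×. Doses were one drug alone or a fixed anchor-drug dose plus five library-drug doses (not always all listed) in √10 steps, and values are duplicate-plate medians.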

Vandetanib + AZD7762 = compound: COc1cc2/c(=N/c3ccc(Br)cc3F)nc[nH]c2cc1OCC1CCN(C)CC1 [Vandetanib] + NC(=O)Nc1cc(-c2cccc(F)c2)sc1C(=O)N[C@H]1CCCNC1 [AZD7762] (partner 0.2 µM)
In short: as §1

[1] = compound: C1=CC=C2C(=C1)N=C(S2)C(C#N)C3=NC(=NC=C3)NCCC4=CN=CC=C4 + N=C(N)NC(=N)NCCc1ccccc1 [Phenformin] (partner 250 µM)
In short: as §1

CUDC-101 + Olaparib = compound: C#Cc1cccc(Nc2ncnc3cc(OC)c(OCCCCCCC(=O)NO)cc23)c1 [CUDC-101] + O=C(c1cc(Cc2n[nH]c(=O)c3ccccc23)ccc1F)N1CCN(C(=O)C2CC2)CC1 [Olaparib] (partner 8 µM)
In short: as §1

| Cell Line | relative viability (CUDC-101 + Pictilisib; first compound 0.01 µM) | relative viability (CUDC-101 + Pictilisib; first compound 0.03162 µM) | relative viability (CUDC-101 + Pictilisib; first compound 0.1 µM) | relative viability (CUDC-101 + Pictilisib; first compound 0.3162 µM) | relative viability (CUDC-101 + Pictilisib; first compound 1 µM) | relative viability (Vandetanib + AZD7762; first compound 0.02 µM) | relative viability (Vandetanib + AZD7762; first compound 0.06325 µM) | relative viability (Vandetanib + AZD7762; first compound 0.2 µM) | relative viability (Vandetanib + AZD7762; first compound 0.6325 µM) | relative viability (Vandetanib + AZD7762; first compound 2 µM) | relative viability ([1]; first compound 0.005 µM) | relative viability ([1]; first compound 0.01581 µM) | relative viability ([1]; first compound 0.05 µM) | relative viability ([1]; first compound 0.1581 µM) | relative viability ([1]; first compound 0.5 µM) | relative viability (CUDC-101 + Olaparib; first compound 0.01 µM) | relative viability (CUDC-101 + Olaparib; first compound 0.03162 µM) | relative viability (CUDC-101 + Olaparib; first compound 0.1 µM) | relative viability (CUDC-101 + Olaparib; first compound 0.3162 µM) | relative viability (CUDC-101 + Olaparib; first compound 1 µM) |
| --- | --- | --- | --- | --- | --- | --- | --- | --- | --- | --- | --- | --- | --- | --- | --- | --- | --- | --- | --- | --- |
| PC-3 [JPC-3] | 0.756 | 0.632 | 0.277 | 0.348 | 0.245 | 0.766 | 0.729 | 0.591 | 0.512 | 0.419 | 0.502 | 0.485 | 0.456 | 0.48 | 0.419 | 1.09 | 0.959 | 0.821 | 0.515 | 0.479 |
| IA-LM | 0.311 | 0.293 | 0.322 | 0.233 | 0.106 |  |  |  |  |  |  |  |  |  |  | 0.768 | 0.871 | 0.74 | 0.86 | 0.46 |
| NCI-H520 | 0.307 |  | 0.305 | 0.251 | 0.214 |  |  |  |  |  | 0.494 | 0.472 | 0.556 | 0.636 | 0.532 | 0.298 | 0.325 | 0.305 | 0.298 | 0.194 |
| A549 | 0.578 | 0.489 | 0.5 | 0.453 | 0.288 |  |  |  |  |  | 0.254 |  | 0.146 | 0.246 | 0.212 | 0.415 | 0.24 | 0.355 | 0.417 | 0.286 |
| BEN | 0.569 | 0.499 | 0.601 | 0.454 | 0.304 | 0.69 | 0.622 | 0.585 | 0.633 | 0.661 | 0.243 | 0.28 | 0.286 | 0.304 | 0.46 | 0.91 | 0.853 | 1.11 | 0.785 | 0.691 |
| COR-L 105 | 0.466 | 0.376 | 0.352 | 0.313 | 0.189 |  |  |  |  |  | 0.322 | 0.487 | 0.582 | 0.525 | 0.411 | 0.703 | 0.74 | 0.759 | 0.697 | 0.77 |
| NCI-H1734 | 0.499 | 0.488 | 0.452 | 0.437 | 0.285 | 0.554 | 0.511 | 0.557 | 0.517 | 0.545 |  | 0.44 | 0.375 | 0.471 | 0.392 | 0.663 | 0.606 | 0.59 | 0.697 | 0.499 |
| LOU-NH91 | 0.578 | 0.523 | 0.564 | 0.473 | 0.433 | 0.759 | 0.765 | 0.678 | 0.718 | 0.755 | 0.677 | 0.702 | 0.597 | 0.687 | 0.685 | 0.906 | 0.779 | 0.76 | 0.754 | 0.624 |
| NCI-H2405 | 0.462 | 0.419 | 0.642 | 0.624 | 0.336 | 0.703 | 0.651 | 0.674 | 0.698 | 0.571 | 0.362 | 0.364 | 0.358 | 0.455 | 0.407 | 0.901 | 0.844 | 0.861 | 0.908 | 0.817 |
| HCC-15 | 0.683 | 0.774 | 0.713 | 0.79 | 0.569 | 1.29 | 1.04 | 1.18 | 1.33 | 1.15 | 0.427 | 0.437 | 0.455 | 0.579 | 0.401 | 0.684 | 0.726 | 0.652 | 0.665 | 0.499 |
| HCC-44 | 0.593 | 0.63 | 0.531 | 0.69 | 0.366 | 0.982 | 1.04 | 1.11 | 1.03 | 1.04 | 0.271 | 0.183 | 0.211 | 0.296 | 0.162 | 0.964 | 1.01 | 0.893 | 0.972 | 1.07 |
| NCI-H1792 | 0.361 | 0.226 | 0.28 | 0.316 | 0.155 | 0.654 | 0.656 | 0.607 | 0.5 | 0.673 |  |  | 0.286 | 0.697 | 0.388 | 0.495 | 0.379 | 0.381 | 0.407 | 0.278 |
| NCI-H2347 | 0.711 | 0.658 | 0.794 | 0.436 | 0.569 | 0.764 | 0.657 | 0.788 | 0.778 | 0.689 | 0.417 | 0.334 | 0.322 | 0.611 | 0.455 | 0.677 | 0.681 | 0.626 | 0.686 | 0.479 |
| SW 900 |  |  |  |  |  | 0.6 | 0.607 |  | 0.598 | 0.688 | 0.418 | 0.704 | 0.627 | 1.02 | 0.338 | 0.887 | 0.811 | 0.841 | 0.686 | 0.628 |
| RERF-LC-KJ | 0.465 | 0.518 | 0.511 | 0.485 | 0.376 |  | 0.985 | 1.06 | 1.04 | 0.766 | 0.396 | 0.447 | 0.403 | 0.442 | 0.377 | 0.939 | 0.917 | 0.92 | 0.818 | 0.699 |
| NCI-H522 |  |  |  |  |  | 0.753 | 0.876 | 0.738 | 0.92 | 0.699 | 0.649 | 0.642 | 0.61 | 0.691 | 0.588 | 0.674 | 0.624 | 0.7 | 0.693 | 0.529 |
| NCI-H1666 | 0.395 | 0.397 | 0.322 | 0.394 | 0.271 | 0.83 | 0.772 | 0.734 | 0.814 | 0.722 | 0.529 | 0.578 | 0.556 | 0.539 | 0.511 | 0.777 | 0.741 | 0.717 | 0.751 | 0.713 |
| LC-2-ad | 0.421 | 0.601 | 0.549 | 0.301 | 0.104 | 0.807 | 0.809 | 0.766 | 0.756 | 0.69 | 0.575 | 0.507 | 0.541 | 0.598 | 0.611 | 0.719 | 0.69 | 0.698 | 0.699 | 0.608 |
